# Test results as given in patent publication US11739098B2 (BRISTOL-MYERS SQUIBB COMPANY, priority 2017, dated 2023).
# Structures can show the parent of a compound that is named as a salt.
# Columns and labels:
# Assay type in all cases: cell-based
# human TLR8 = target: T1, human TLR8 (Homo sapiens, UniProt Q9NR97); assay: TLR8 inhibition reporter assay (HEK-Blue cells, SEAP reporter, R848 stimulation); details: HEK-Blue cells overexpressing human TLR8, SEAP reporter, R848 15.9 μM
# T1 construct: host or cells: HEK-Blue cells (HEK293-derived reporter line)
# T1 sequence (Q9NR97 27-1041): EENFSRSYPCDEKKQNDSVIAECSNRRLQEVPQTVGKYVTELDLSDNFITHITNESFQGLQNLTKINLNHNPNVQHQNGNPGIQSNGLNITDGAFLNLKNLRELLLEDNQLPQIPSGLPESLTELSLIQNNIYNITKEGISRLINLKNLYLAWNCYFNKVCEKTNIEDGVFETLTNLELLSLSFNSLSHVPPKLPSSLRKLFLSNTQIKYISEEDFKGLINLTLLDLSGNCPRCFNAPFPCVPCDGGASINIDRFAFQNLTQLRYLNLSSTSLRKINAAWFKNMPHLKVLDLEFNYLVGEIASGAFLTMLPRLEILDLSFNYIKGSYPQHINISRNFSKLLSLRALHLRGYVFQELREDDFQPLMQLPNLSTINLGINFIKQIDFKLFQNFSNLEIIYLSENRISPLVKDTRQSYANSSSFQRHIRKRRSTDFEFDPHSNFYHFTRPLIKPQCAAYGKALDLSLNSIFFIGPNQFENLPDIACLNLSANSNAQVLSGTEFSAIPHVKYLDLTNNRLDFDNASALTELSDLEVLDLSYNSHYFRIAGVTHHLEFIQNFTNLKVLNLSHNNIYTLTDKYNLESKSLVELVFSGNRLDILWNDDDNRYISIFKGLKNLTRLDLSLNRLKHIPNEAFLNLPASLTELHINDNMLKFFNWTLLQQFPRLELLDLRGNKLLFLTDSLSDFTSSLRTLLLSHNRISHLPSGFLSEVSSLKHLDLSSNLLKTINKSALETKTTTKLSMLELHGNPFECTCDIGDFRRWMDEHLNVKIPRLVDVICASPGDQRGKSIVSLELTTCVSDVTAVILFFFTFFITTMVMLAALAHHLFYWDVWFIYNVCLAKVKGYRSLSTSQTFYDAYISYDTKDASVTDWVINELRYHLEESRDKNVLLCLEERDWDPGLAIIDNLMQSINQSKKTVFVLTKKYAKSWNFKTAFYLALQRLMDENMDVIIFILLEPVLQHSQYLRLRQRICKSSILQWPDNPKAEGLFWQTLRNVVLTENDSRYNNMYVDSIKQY
# Method in brief: (§1)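 HEK-Blue cells overexpressing human TLR7, TLR8 or TLR9 (NF-κB/AP-1-driven SEAP) pre-treated 30 min at room temperature with compound (0.05 nM–50 μM), then stimulated with gardiquimod 7.5 μM (TLR7), R848 15.9 μM (TLR8) or ODN2006 5 nM (TLR9). SEAP read colorimetrically after 22 h at 37 °C; % inhibition calculated.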
# human TLR7 = target: T2, human TLR7 (Homo sapiens, UniProt Q9NYK1); assay: TLR7 inhibition reporter assay (HEK-Blue cells, SEAP reporter, gardiquimod stimulation); details: HEK-Blue cells overexpressing human TLR7, SEAP reporter, gardiquimod 7.5 μM
# T2 construct: host or cells: HEK-Blue cells (HEK293-derived reporter line)
# T2 sequence (Q9NYK1 27-1049): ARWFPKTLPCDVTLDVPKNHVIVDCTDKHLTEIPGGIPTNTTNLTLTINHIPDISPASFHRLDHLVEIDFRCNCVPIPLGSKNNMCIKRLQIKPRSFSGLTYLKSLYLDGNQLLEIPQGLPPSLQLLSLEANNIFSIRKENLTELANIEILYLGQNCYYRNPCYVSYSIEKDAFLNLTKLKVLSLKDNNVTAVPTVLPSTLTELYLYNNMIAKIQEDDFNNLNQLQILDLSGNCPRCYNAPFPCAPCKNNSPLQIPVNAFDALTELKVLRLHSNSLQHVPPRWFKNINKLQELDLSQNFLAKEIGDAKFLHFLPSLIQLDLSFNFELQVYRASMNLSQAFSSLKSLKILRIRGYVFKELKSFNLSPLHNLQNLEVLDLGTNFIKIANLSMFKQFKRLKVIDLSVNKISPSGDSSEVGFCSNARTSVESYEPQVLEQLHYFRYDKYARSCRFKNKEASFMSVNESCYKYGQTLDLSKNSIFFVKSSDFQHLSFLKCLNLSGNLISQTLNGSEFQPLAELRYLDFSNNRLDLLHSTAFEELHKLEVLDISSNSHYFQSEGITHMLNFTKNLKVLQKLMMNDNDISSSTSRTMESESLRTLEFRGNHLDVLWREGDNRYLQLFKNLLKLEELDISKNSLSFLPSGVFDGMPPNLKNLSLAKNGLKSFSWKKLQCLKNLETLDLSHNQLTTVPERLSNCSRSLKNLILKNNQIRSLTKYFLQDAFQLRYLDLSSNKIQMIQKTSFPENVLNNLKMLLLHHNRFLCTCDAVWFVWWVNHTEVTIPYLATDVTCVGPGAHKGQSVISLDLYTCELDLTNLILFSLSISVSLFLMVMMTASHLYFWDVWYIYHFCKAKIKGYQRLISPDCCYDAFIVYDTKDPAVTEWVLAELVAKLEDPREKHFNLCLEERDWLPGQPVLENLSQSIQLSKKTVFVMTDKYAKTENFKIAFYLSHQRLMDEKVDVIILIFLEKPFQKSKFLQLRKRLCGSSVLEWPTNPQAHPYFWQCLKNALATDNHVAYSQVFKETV
# Method in brief: as §1
# human TLR9 = target: T3, human TLR9 (Homo sapiens, UniProt Q9NR96); assay: TLR9 inhibition reporter assay (HEK-Blue cells, SEAP reporter, ODN2006 stimulation); details: HEK-Blue cells overexpressing human TLR9, SEAP reporter, ODN2006 5 nM
# T3 construct: host or cells: HEK-Blue cells (HEK293-derived reporter line)
# T3 sequence (Q9NR96 26-1032): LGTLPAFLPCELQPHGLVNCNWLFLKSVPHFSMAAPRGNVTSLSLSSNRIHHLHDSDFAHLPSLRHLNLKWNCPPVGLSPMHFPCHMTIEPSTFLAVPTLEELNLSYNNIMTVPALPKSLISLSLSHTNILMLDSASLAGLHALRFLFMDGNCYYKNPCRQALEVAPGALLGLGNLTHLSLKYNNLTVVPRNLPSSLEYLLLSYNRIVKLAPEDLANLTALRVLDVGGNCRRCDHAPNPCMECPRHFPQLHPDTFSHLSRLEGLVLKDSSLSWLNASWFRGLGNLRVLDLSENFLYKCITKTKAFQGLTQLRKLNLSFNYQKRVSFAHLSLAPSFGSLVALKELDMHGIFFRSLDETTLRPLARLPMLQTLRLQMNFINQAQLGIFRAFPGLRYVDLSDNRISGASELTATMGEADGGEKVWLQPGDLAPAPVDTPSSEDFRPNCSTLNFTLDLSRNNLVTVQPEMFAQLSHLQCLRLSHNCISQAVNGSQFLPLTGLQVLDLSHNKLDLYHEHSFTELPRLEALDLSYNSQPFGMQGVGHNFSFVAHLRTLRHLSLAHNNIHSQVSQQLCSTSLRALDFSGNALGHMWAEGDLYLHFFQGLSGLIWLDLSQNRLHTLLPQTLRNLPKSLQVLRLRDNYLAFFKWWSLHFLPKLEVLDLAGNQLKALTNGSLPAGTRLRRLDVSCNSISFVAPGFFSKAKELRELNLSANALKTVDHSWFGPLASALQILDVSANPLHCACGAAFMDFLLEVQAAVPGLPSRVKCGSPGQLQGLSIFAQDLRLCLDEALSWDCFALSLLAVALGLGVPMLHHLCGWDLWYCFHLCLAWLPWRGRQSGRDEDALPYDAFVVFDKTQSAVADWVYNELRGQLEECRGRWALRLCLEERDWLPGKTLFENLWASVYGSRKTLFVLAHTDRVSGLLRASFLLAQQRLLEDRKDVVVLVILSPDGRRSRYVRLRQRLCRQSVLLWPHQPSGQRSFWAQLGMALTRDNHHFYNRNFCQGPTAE
# Method in brief: as §1
SMILES,IC50 (human TLR8),IC50 (human TLR7),IC50 (human TLR9)
"CC(C)c1c(-c2ccn3nnnc3c2)[nH]c2ccc(C3CCN(CC(=O)N(C)C)CC3)cc12 [Example 304, 2-(4-(3-isopropyl-2-(tetrazolo[1,5-a]pyridin-7-yl)-1H-indol-5-yl)piperidin-1-yl)-N,N-dimethylacetamide]",100 to 1000 nM,< 100 nM,1000 to 50000 nM
"CCCN1CCC(c2ccc3[nH]c(-c4ccc5c(c4)COC5=O)c(C(C)C)c3c2)CC1 [Example 953, 5-(3-isopropyl-5-(1-propylpiperidin-4-yl)-1H-indol-2-yl)isobenzofuran-1(3H)-one]",< 100 nM,< 100 nM,1000 to 50000 nM
"CNC(=O)CN1CCC(c2ccc3[nH]c(-c4ccn5nc(C)nc5c4)c(C(C)C)c3c2)CC1 [Example 331, 2-(4-(3-isopropyl-2-(2-methyl-[1,2,4]triazolo[1,5-a]pyridin-7-yl)-1H-indol-5-yl)piperidin-1-yl)-N-methylacetamide]",1000 to 50000 nM,< 100 nM,1000 to 50000 nM
"Cc1cc(-c2[nH]c3ccc(C4CCN(CC(N)=O)CC4)cc3c2C(C)C)cc2cccnc12 [Example 436, 2-(4-(3-isopropyl-2-(8-methylquinolin-6-yl)-1H-indol-5-yl)piperidin-1-yl)acetamide]",< 100 nM,< 100 nM,1000 to 50000 nM
"COc1ccc(CN2CCC(c3ccc4[nH]c(-c5ccc6nccn6c5)c(C(C)C)c4c3)CC2)cn1 [Example 935, 6-(3-isopropyl-5-(1-((6-methoxypyridin-3-yl)methyl)piperidin-4-yl)-1H-indol-2-yl)imidazo[1,2-a]pyridine]",< 100 nM,< 100 nM,100 to 1000 nM
"CCc1c(-c2ccnc3[nH]ccc23)[nH]c2ccc(C3CCN(C4CC(C)(C)NC(C)(C)C4)CC3)cc12 [Example 838, 4-(3-ethyl-5-(2′,2′,6′,6′-tetramethyl-[1,4′-bipiperidin]-4-yl)-1H-indol-2-yl)-1H-pyrrolo[2,3-b]pyridine]",< 100 nM,< 100 nM,100 to 1000 nM
"Cc1cc(-c2[nH]c3ccc(C4CCN(CC(=O)N(C)C)CC4)cc3c2C(C)C)cn2ccnc12 [Example 398, 2-(4-(3-isopropyl-2-(8-methylimidazo[1,2-a]pyridin-6-yl)-1H-indol-5-yl)piperidin-1-yl)-N,N-dimethylacetamide]",< 100 nM,< 100 nM,100 to 1000 nM
"CCc1c(-c2ccc3[nH]c(=O)oc3c2)[nH]c2ccc(C3CCNCC3)cc12 [Example 167, 6-(3-ethyl-5-(piperidin-4-yl)-1H-indol-2-yl)benzo[d]oxazol-2(3H)-one]",100 to 1000 nM,100 to 1000 nM,100 to 1000 nM
"Cc1cc(-c2[nH]c3ccc(C4CCNCC4)cc3c2C(C)C)cc2cn(C)nc12 [Example 138, 5-(3-isopropyl-5-(piperidin-4-yl)-1H-indol-2-yl)-2,7-dimethyl-2H-indazole]",< 100 nM,< 100 nM,1000 to 50000 nM
"Cc1cc(-c2[nH]c3ccc(C4CCN(C(=O)CCN5C[C@H]6CC[C@@H](C5)O6)CC4)cc3c2C(C)C)cn2nnnc12 [Example 622, 3-((1R,5S)-8-oxa-3-azabicyclo[3.2.1]octan-3-yl)-1-(4-(3-isopropyl-2-(8-methyltetrazolo[1,5-a]pyridin-6-yl)-1H-indol-5-yl)piperidin-1-yl)propan-1-one]",< 100 nM,< 100 nM,1000 to 50000 nM
"Cc1nc[nH]c1CN1CCC(c2ccc3[nH]c(-c4ccnc5[nH]ncc45)c(C(C)C)c3c2)CC1 [Example 864, 4-(3-isopropyl-5-(1-((4-methyl-1H-imidazol-5-yl)methyl)piperidin-4-yl)-1H-indol-2-yl)-1H-pyrazolo[3,4-b]pyridine]",< 100 nM,< 100 nM,100 to 1000 nM
"COc1c(C)c(-c2[nH]c3ccc(C4CCNCC4)cc3c2C(C)C)nn2ncnc12 [Example 33, 6-(3-isopropyl-5-(piperidin-4-yl)-1H-indol-2-yl)-8-methoxy-7-methyl-[1,2,4]triazolo[1,5-b]pyridazine]",< 100 nM,< 100 nM,100 to 1000 nM
"CNCCN1CCC(c2ccc3[nH]c(-c4ccnc5[nH]ncc45)c(C(C)C)c3c2)CC1 [Example 650, 2-(4-(3-isopropyl-2-(1H-pyrazolo[3,4-b]pyridin-4-yl)-1H-indol-5-yl)piperidin-1-yl)-N-methylethanamine dihydrochloride]",< 100 nM,< 100 nM,100 to 1000 nM
"CCc1c(-c2ccnc3[nH]ncc23)[nH]c2ccc(C3CCNCC3)c(C)c12 [Example 254, 4-(3-ethyl-4-methyl-5-(piperidin-4-yl)-1H-indol-2-yl)-1H-pyrazolo[3,4-b]pyridine]",1000 to 50000 nM,1000 to 50000 nM,> 50000 nM
"CNCCN1CCC(c2ccc3[nH]c(-c4ccc5c(c4)CCO5)c(C)c3c2)CC1 [Example 669, 2-(4-(2-(2,3-dihydrobenzofuran-5-yl)-3-methyl-1H-indol-5-yl)piperidin-1-yl)-N-methylethan-1-amine]",100 to 1000 nM,1000 to 50000 nM,1000 to 50000 nM
